Results reported in patent US6677302B2, “Compositions and methods for the treatment of viral disorders” (The Trustees of Boston University, priority 1996, dated 2004).
Entries after “also recorded” stand apart in the source; their conditions may differ.

Legend:
[1] = test system: 3 other neuroblastoma cell lines; test: Growth inhibition over 6 days (RFU); type: cell-based, human; details: 0.5 and 1.0 mM, FIG. 1a
[2] = test system: n-myc transcript in neuroblastoma cells; test: Expression of oncogene n-myc transcript; type: cell-based, human; details: 1 mM
Glioblastoma Multiforme = test: MIC on cell proliferation, 7 days in culture; type: cell-based, human
Method: (§1) The ability of arginine butyrate to induce differentiation has been evaluated and is measured by inhibition of growth, in some of the neoplastic cell types previously reported to be sensitive to (sodium) butyric acid, and found arginine butyrate to be as potent as butyric acid. We have also extended that work to additional cell types and found Arginine Butyrate to induce differentiation in these new cell types. Table 1 lists the cell types tested and the minimum inhibitory concentration (MIC) of sodium butyrate (NaB) and arginine butyrate (ArgB) on these cell lines. The MIC is the lowest dose that prevents all growth over the 7 days that the cells are maintained in culture, that is the minimum dose that prevents an increase in cell number. […] The […] of ArgB and NaB were equivalent on all cell lines tested.

[3] = test system: Colonic Adenocarcinoma (HT29); test: MIC on cell proliferation, 7 days in culture; type: cell-based, human
Method: as §1

Osteosarcoma (HOS) = test: MIC on cell proliferation, 7 days in culture; type: cell-based, human
Method: as §1

Gastric Carcinoma (AGS) = test: MIC on cell proliferation, 7 days in culture; type: cell-based, human
Method: as §1

Rhabdomyosarcoma = test: MIC on cell proliferation, 7 days in culture; type: cell-based, human
Method: as §1

Choriocarcinoma (JAR) = test: MIC on cell proliferation, 7 days in culture; type: cell-based, human
Method: as §1

Erythroleukemia (K562) = test: MIC on cell proliferation, 7 days in culture; type: cell-based, human
Method: as §1

Myeloid Leukemia (HL60) = test: MIC on cell proliferation, 7 days in culture; type: cell-based, human
Method: as §1

[4] = test system: EBV+ and EBV− cell lines (X50-7, Akata, HPB-ALL, Nalm-6); test: Growth of EBV+ and EBV− cell lines; type: cell-based, human
Description: In some experiments sodium was used instead of arginine to neutralize butyric acid. […] Cell lines used were X50-7, a latent EBV+ B-cell lymphoma; Akata, a producer EBV+ Burkitt's lymphoma; HPB-ALL, a T-cell line; and Nalm-6, an EBV− B-cell line. Growth curves for X50-7 cells in different concentrations of sodium butyrate are shown in FIG. 8b and the growth curves for HPB-ALL cells in different concentrations of sodium butyrate are shown in FIG. 8c.

[5] = Clinical pharmacokinetics of butyrate infusion; type: in vivo, human; details: patients with β-hemoglobinopathies
Method: (§2) Clinical experience with butyrates have been performed in children with acute myelogenous leukemia in Israel, and in children with neuroblastoma (K. Prasad, Life Sci. 27:1351-58, 1980). […] Eleven pediatric patients and twelve adults with β-hemoglobinopathies were treated with IV arginine butyrate at a starting dose of 500 mg/kg/day for 2-7 weeks. If no side effects were noted, the rate was increased by 250 mg/kg/day to a final rate of 1500 mg/kg/day in 4 patients, and 2000 mg/kg/day in 2 patients. […] This rise in BUN returned to normal within 12 hours of discontinuation of drug, and is thought to be secondary to effect of arginine upon ureagenesis. […] Peak serum levels of butyrate ranged between 0.04-0.05 mM, and butyrate was not detectable 15 minutes after infusion was discontinued. Plasma arginine levels were also rapidly cleared, with a T1/2 of 15 minutes, and baseline arginine levels were reached within 12 hours after discontinuation of infusion.
Butyric acid is a short chain fatty acid present in foods such as dairy products. Arginine is an amino acid which is commonly used in hyperalimentation solutions in hospitals throughout the country. Butyric acid was obtained from Aldrich, catalog number W-212. L-Arginine is anhydrous. Arginine was combined with butyric acid, pH 5.0-5.5, in sterile, non-pyrogenic water for injection to neutralize the fatty acid. The solution was filtered through a Millipore System at a final concentration for injection of 100 mg/ml or 25 mg/ml. Each lot was pyrogen tested and tested for sterility and purity. […] Since 10% arginine butyrate solution is hypertonic (100 mg/ml), it must be infused through a long or deep IV access to avoid peripheral venous irritation. Arginine butyrate was infused via an infusion pump. European pharmacokinetic studies of arginine butyrate given as a “slow” and 90 minute bolus of 500 mls of a 5% solution (2.5 g/M in two normal volunteers, and found a 15 minute elimination period. Plasma levels from patients with hemoglobinopathies have shown that butyric acid disappears within 5 to 15 minutes after an infusion of up to 2,000 mg/kg/day.
In vitro, peaks induction of EBV-TK plateaus at serum level of around 1 mM. […] Therefore, dose levels up to 2,000 mg/kg/day, were evaluated in an attempt to reach serum levels of 1 mM. Treatment cycles were of 4 week duration, with 3 weeks on treatment and one week off. Patients were given the standard dose of GCV throughout each 21 day course of arginine butyrate, starting, however, on day 0. Arginine butyrate was given by continuous IV infusion at 500 mg/kg/day for 2 days, at 1,000 mg/kg/day for 2 days, at 1,500 mg/kg/day for 2 days, and thereafter at 2,000 mg/kg/day, or as tolerated, for the rest of the 21 day course. Cycle 2 was begun on Day 29. […]

[6] = Clinical toxicity in patients; type: in vivo, human; details: for grade 3 or 4 toxicities: patients treated up to 2,000 mg/kg/day
Method: as §2
Three patients with refractory neoplasms (breast, melanoma, adenocarcinoma, of unknown primary) have been enrolled and completed 1-2 cycles of arginine butyrate as a dose of 500 mg/kg/day over 6-8 hours for 10 days.
Three patients (with breast cancer, bowel cancer or Hodgkins disease) have completed two cycles of arginine butyrate at a dose of 750 mg/kg/day for 10 days. […] Otherwise, there was no other objective measures of organ progressed after treatment was topped. […] There was a further resolution of the disease during the second cycle. Disease progression was noted one month after second cycle was completed. At 1000 mg/kg/day, 3 patients have been enrolled on study.
An inter-group dose-escalation study is being conducted in patients with refractory malignancies. There are 3 patients per group with the dose levels starting at 500 mg/kg/day, and increasing by 250 mg/kg/day per group, if toxicity permits. Doses are given by 8 hour IV infusion, daily, for 5 days times 2 weeks, with weekends off, for a total of 10 days of treatment per cycle.

In the case of arginine butyrate, the growth inhibition [1] is reported as “dose response growth inhibition”, the “expression of n-myc transcript” value [2] is reported as “decreased approximately Mold” and the MIC (Glioblastoma Multiforme) is reported as 1,000 μM. For the same substance, the MIC [3] was 2,000 μM, the MIC (Osteosarcoma (HOS)) was 312 µM and the MIC (Gastric Carcinoma (AGS)) was 2,000 μM. The MIC (Rhabdomyosarcoma) was 156 µM, the MIC (Choriocarcinoma (JAR)) was 156 µM and the MIC (Erythroleukemia (K562)) was 1,250 μM. The MIC (Myeloid Leukemia (HL60)) was 78 µM, the “effect on cell growth” value ([4]; 1 mM) was “cytostatic to some cell lines and permitted normal cell growth in others” and the “effect on cell growth” value ([4]; 2 mM and 3 mM) was “cytocidal to most EBV+ and EBV− cell lines”. The “Plasma arginine T1/2” value ([5]; IV) was 15 min, the “time after discontinuation of infusion at which butyrate was not detectable” value ([5]; IV) was 15 min and the “time to baseline arginine levels after discontinuation of infusion” value ([5]; IV) was ≤ 12 h. The “Peak serum levels of butyrate” value ([5]; IV 500 up to 2000 mg/kg/day) was 0.04 to 0.05 mM, the “patients with grade 1 nausea/vomiting” value ([6]; 500 mg/kg/day, three patients) was “Two of the three patients” and the “patients with grade I nausea/vomiting” value ([6]; 750 mg/kg/day for 10 days, three patients) was “One of the three patients; also recorded: One, of the three patients”. For the same substance, the “serum BUN” value ([6]; 750 mg/kg/day, one patient) was “transient elevation of serum BUN”, the “time to resolution of BUN elevation and proteinuria after discontinuation” value ([6]; 750 mg/kg/day, one patient) was ≤ 5 days and the toxic side effects ([6]; adults, IV infusion of similar doses) was “no toxic side effects”. For the same substance, the “grade 3 or 4 toxicities” value ([6]; listed as Arginine butyrate) was “no grade 3 and no grade 4 toxicities reported”, the “grade 3 or 4 toxicities” value ([6]; listed as arginine butyrate) was “no grade 3 or 4 toxicities” and the organ specific toxicity ([6]; recorded by principal investigators) was “No organ specific toxicity was recorded”. The “objective toxicities (hepatic, renal, cardiac, pulmonary, hematopoietic)” value ([6]; refractory neoplasms, 500 mg/kg/day over 6-8 hours for 10 days) was “no objective toxicities noted”, the untoward side effects ([6]; three cancer patients, emergency basis, up to 2,000 mg/kg/day, 10 days) was “no untoward side effects noted” and the “side effect: anorexia” value ([6]; β-hemoglobinopathies, IV 500-2000 mg/kg/day) was “Transient anorexia developed in one patient”. For the same substance, the “side effect: serum aminotransferase” value ([6]; β-hemoglobinopathies, IV 500-2000 mg/kg/day, 2-7 weeks) was “transient, slight rise in serum aminotransferase” and the “time for rise in BUN to return to normal after discontinuation” value ([6]; β-hemoglobinopathies, continuous infusion over 2 weeks) was ≤ 12 h.
